Data from patent US6376670B1, “Quinoline-indole antimicrobial agents, uses and compositions related thereto” (Sepracor Inc., priority 1997, dated 2002).
Read-outs that look alike come from different tables or passages of the source.

Experiments:
[1] = tested on: methicillin-resistant Staphylococcus aureus (MRSA); assay: Determination of MIC values (BHI broth, 96 well microtiter plate); type: cell-based; settings: Staphylococcus aureus, MRSA, read-out: MIC MRSA
Method: (§1) Stock solutions of compounds are prepared with a concentration of 10 mg/mL. These solutions are then diluted 1:4 to give a concentration of 2.5 mg/mL. The compounds are then serially diluted 1:2 for 6 iterations. The concentrations made for each compound are 2.5, 1.25, 0.625, 0.3125, 0.156, 0.078, and 0.039 mg/mL. A control sample (no compound) is run along with each compound tested. All dilutions are made in DMSO.
(§2) All wells of a 96 well microtiter plate are filled with 100 μL of BHI (Brain-Heart Infusion) broth. Columns on the plate are labeled 1-12, and rows are labeled A-H. Each column of wells is used to test one series of diluted compounds. Into each well of 100 μL of BHI broth, 1 μL of diluted compound is placed for a 1:100 dilution. This makes the final concentration of each drug series 25, 12.5, 6.25, 3.125, 1.56, 0.78, 0.39, and 0 μg/mL.
(§3) Test Organism: A sterile 15 mL screw cap tube is filled wth 3 mL of BHI broth. Next, 2-3 colonies of test organism are inoculated into the tube. The tube is then incubated at 37° C. in a CO2 (approx. 7%) atmosphere jar. The organisms are allowed to grow to the density of a 0.5 McFarland standard (10^8 cells/mL). The organism is then inoculated into each well of the microtiter plate containing the diluted compounds to be tested for MIC. The inoculum is 1 μL in volume and represents 10^5 to 10^6 cells/mL.
(§4) After inoculation the plates are covered and incubated at 37° C. and approx. 7-10% CO2 atmosphere overnight (about 16 hours). The plates are then observed for growth, the well with the lowest concentration of drug and no observable growth represents the well determining the MIC.

[2] = tested on: vancomycin-resistant Enterococcus spp. (VRE); assay: as above; type: cell-based; settings: Enterococcus, VRE, read-out: MIC VREF
Method: as §1, §2, §3, §4

[3] = 16 h, BHI broth, 37° C., overnight (about 16 hours)
[4] = VREF, BHI broth, overnight 37° C.

Row | MIC [1, 3] [µg/mL] | MIC [2, 3] [µg/mL] | SMILES | further results
1 | < 7 | < 7 | NCc1cccc(CNC(=O)c2cc(-c3c[nH]c4ccc(Br)cc34)nc3ccc(Br)cc23)c1 [Example 125] | –
2 | – | – | Clc1ccc2nc(-c3c(-c4ccccc4)[nH]c4ccccc34)ccc2c1 [Example 203] | MIC ([1]; BHI broth, overnight 37° C.): > 25 µg/mL; MIC [2, 4]: > 25 µg/mL
3 | < 25 | < 25 | O=C(c1cc(-c2c[nH]c3ccc(Br)cc23)nc2ccccc12)N1CCC(O)(c2ccccc2)CC1 [Example 36] | –
4 | < 25 | < 25 | CNC1CCN(C(=O)c2cc(-c3c[nH]c4ccc(Br)cc34)nc3ccccc23)C1 (centres unmarked) [Example 60] | –
5 | – | – | O=C(NC1CN2CCC1CC2)c1cc(-c2c[nH]c3ccc(Br)cc23)nc2ccccc12 (centres unmarked) [Example 35] | MIC ([1]; 16 h): < 25 µg/mL; MIC ([2]; 16 h): > 25 µg/mL
6 | < 7 | > 25 | NC(=O)C(Cc1ccc([N+](=O)[O-])cc1)NC(=O)c1cc(-c2c[nH]c3ccc(Br)cc23)nc2ccccc12 (centres unmarked) [Example 149] | –
7 | < 25 | < 25 | Brc1ccc2[nH]cc(-c3cc(CN4CCNCC4)c4ccccc4n3)c2c1 [Example 28] | –
8 | < 7 | < 25 | Cc1ccc2[nH]cc(-c3cc(C(=O)NC(Cc4ccc5ccccc5c4)C(N)=O)c4ccccc4n3)c2c1 (centres unmarked) [Example 146] | –
9 | > 25 | > 25 | O=C(O)c1cc(-c2c[nH]c3cccc(F)c23)nc2ccccc12 [Example 77] | –
10 | < 25 | < 25 | NC(=O)c1cc(-c2c[nH]c3ccc(Br)cc23)nc2ccc(C#CCN3CCCCC3)cc12 [Example 137] | –
11 | – | – | Oc1ccc2[nH]cc(-c3ccc4cc(Cl)ccc4n3)c2c1 [Example 205] | MIC ([1]; BHI broth, overnight 37° C.): < 25 µg/mL; MIC [2, 4]: < 25 µg/mL
12 | > 25 | > 25 | Cn1cc(-c2ccc3ccccc3n2)c2cc(Cl)ccc21 [Example 177] | –
13 | > 25 | > 25 | CC(C)(C)OC(=O)n1cc(-c2cc(C(=O)O)c3cccnc3n2)c2cc(Br)ccc21 [Example 157] | –
14 | < 25 | < 25 | NC(=O)C1CCCN(C(=O)c2cc(-c3c[nH]c4ccc(Br)cc34)nc3ccccc23)C1 (centres unmarked) [Example 46] | –
15 | < 25 | < 25 | O=C(c1cc(-c2c[nH]c3ccc(Br)cc23)nc2ccccc12)N1CCN(c2ccc(F)cc2)CC1 [Example 32] | –
16 | > 25 | > 25 | Fc1cccc2[nH]cc(-c3ccc4cc(Cl)ccc4n3)c12 [Example 192] | –
17 | > 25 | > 25 | Cc1ccc2[nH]cc(-c3ccc4ccccc4n3)c2c1 [Example 188] | –
18 | < 7 | < 25 | NC(=O)C(Cc1ccc2ccccc2c1)NC(=O)c1cc(-c2c[nH]c3ccccc23)nc2ccccc12 (centres unmarked) [Example 145] | –
19 | < 25 | < 25 | NCc1ccc(CNC(=O)c2cc(-c3c[nH]c4ccc(OCc5ccccc5)cc34)nc3ccccc23)cc1 [Example 19] | –
20 | > 25 | > 25 | NCc1ccc(CNC(=O)c2cc(-c3c[nH]c4ccccc34)nc3ccccc23)cc1 [compound 7] | –
21 | > 25 | > 25 | O=C(O)c1cc(-c2c[nH]c3ccccc23)nc2c(Cl)cccc12 [Example 156] | –
22 | > 25 | > 25 | N=C(N)NCCC[C@H](NC(=O)c1cc(-c2c[nH]c3ccc(Br)cc23)nc2ccccc12)C(=O)O [Example 88] | –
23 | > 25 | > 25 | NCc1ccc(CNC(=O)c2cc(-c3c(-c4ccccc4)[nH]c4ccccc34)nc3ccccc23)cc1 [Example 22] | –
24 | < 7 | < 25 | Cc1c(-c2c[nH]c3ccc(Br)cc23)nc2ccc(I)cc2c1C(=O)NCc1ccc(CN)cc1 [Example 152] | –
25 | > 25 | > 25 | Cn1cc(-c2ccc3cc(Cl)ccc3n2)c2cc(Br)ccc21 [Example 167] | –
26 | – | – | COc1cc2c(-c3ccc4cc(Cl)ccc4n3)cn(C)c2cc1OC [Example 222] | MIC ([1]; BHI broth, overnight 37° C.): > 25 µg/mL; MIC [2, 4]: > 25 µg/mL
27 | > 25 | > 25 | Cc1ccc2[nH]cc(-c3ccc4cc(Cl)ccc4n3)c2c1 [Example 198] | –
28 | – | – | Cn1cc(-c2ccc3cc(Cl)ccc3n2)c2ccc(F)cc21 [Example 212] | MIC ([1]; BHI broth, overnight 37° C.): > 25 µg/mL; MIC [2, 4]: > 25 µg/mL
